System: vasopressin V2 receptors
Experiment: Vasopressin V2 agonist effects in normal conscious water-loaded rats
Format: in vivo
Conditions: oral dose of 10 mg/Kg, urine collected for four hours, Sprague-Dawley (CD) rats; for Changes in Urinary Osmolality: osmolality changes expressed as percent of control; for Urine Volume (% decrease): percent decrease in urine volume vs. control
Description: Vasopressin V2 Agonist Effects of Test Compounds in Normal Conscious Water-Loaded Rats:
Male or female normotensive Sprague-Dawley rats (Charles River Laboratories, Inc., Kingston, NY) of 350-500 g body weight were supplied with standard rodent diet (Purina Rodent Lab. Chow 5001) and water ad libitum. On the day of test, rats were placed individually into metabolic cages equipped with devices to separate the feces from the urine and containers for collection of urine. A test compound or a reference agent was given at an oral dose of 10 mg/Kg in a volume of 10 mL/Kg. The vehicle used was 20% dimethylsulfoxide (DMSO) in 2.5% preboiled corn starch. Thirty minutes after dosing the test compound, rats were gavaged with water at 30 mL/Kg into the stomach using a feeding needle. During the test, rats were not provided with water or food. Urine was collected for four hours after dosing of the test compound. At the end of four hours, urine volume was measured. Urinary osmolality was determined using a Fiske One-Ten Osmometer (Fiske Associates, Norwood, MA, 02062) or an Advanced CRYOMATIC Osmometer, Model 3C2 (Advanced Instruments, Norwood, MA). Determinations of Na^+, K^+- and Cl^- ion were carried out using ion specific electrodes in a Beckman SYNCHRON EL-ISE Electrolyte System analyzer. The urinary osmolality should increase proportionally. In the screening test, two rats were used for each compound. If the difference in the urine volume of the two rats was greater than 50%, a third rat was used.

| Compound | Changes in Urinary Osmolality | Urine Volume (% decrease) |
| --- | --- | --- |
| Cn1ccc2cc(C(=O)N3Cc4cccn4Cc4ccccc43)ccc21 [Example 1, (5H-10,11-Dihydro-pyrrolo [2,1-c][1,4]benzodiazepin-10-yl)-(1-methyl-1H-indol-5-yl)-methanone] | 174% of control | 66 % decrease |
| O=C(c1ccc2c(c1)OCO2)N1Cc2cccn2Cc2ccccc21 [Example 2, Benzo[1,3]dioxol-5-yl-(5H-10,11-dihydro-pyrrolo [2,1-c][1-4]benzodiazepin-10-yl)-methanone] | 41% of control | 23 % decrease |
| O=C(c1ccc2c(c1)CCO2)N1Cc2cccn2Cc2ccccc21 [Example 3, (2,3-Dihydro-benzofuran-5-yl)-(5H-10,11-dihydro-pyrrolo[2,1-c][1,4]benzodiazepin-10-yl)-methanone] | 10% of control | 32 % decrease |
| O=C(c1ccc2ncsc2c1)N1Cc2cccn2Cc2ccccc21 [Example 4, (Benzothiazol-6-yl)-(5H-10,11-dihydro-pyrrolo[2,1-c][1,4]benzodiazepin-10-yl)-methanone] | 3% of control | 19 % decrease |

Source: patent EP1149104B1, “PYRROLOBENZODIAZEPINE CARBOXYAMIDE VASOPRESSIN AGONISTS” (Wyeth, priority 1999, dated 2000)
